These results are taken from paper PMC10202323, “4′-Deoxypyridoxine disrupts vitamin B6 homeostasis in Escherichia coli K12 through combined inhibition of cumulative B6 uptake and PLP-dependent enzyme activity” (Microbiology, 2023).

Common to all, as to assay type: biochemical
One assay addresses T1, PdxK (Escherichia coli, UniProt P40191).
T1 construct: recombinant, purified to homogeneity as previously reported
The assay is described as follows: spectrophotometric PLP formation at […] nm. The conditions noted are these: read-out: inhibition constant.

Another assay deals with T2, PdxH (Escherichia coli, UniProt P0AFI7).
T2 construct: recombinant, purified to homogeneity as previously reported
T2 sequence (P0AFI7 2-218): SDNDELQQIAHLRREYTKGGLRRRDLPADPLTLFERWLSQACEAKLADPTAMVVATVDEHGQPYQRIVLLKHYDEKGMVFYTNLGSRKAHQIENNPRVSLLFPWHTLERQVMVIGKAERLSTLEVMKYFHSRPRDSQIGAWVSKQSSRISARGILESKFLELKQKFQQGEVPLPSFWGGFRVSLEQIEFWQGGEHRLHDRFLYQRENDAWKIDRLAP
The assay is described as follows: spectrophotometric PLP formation at […] nm. The conditions noted are these: read-out: apparent inhibition constant.

For a further assay, the target named is T3, GlyA (Escherichia coli, UniProt P0A825).
T3 construct: recombinant, purified to homogeneity as previously reported; apoenzyme reconstituted with PLP
T3 sequence (P0A825 1-417): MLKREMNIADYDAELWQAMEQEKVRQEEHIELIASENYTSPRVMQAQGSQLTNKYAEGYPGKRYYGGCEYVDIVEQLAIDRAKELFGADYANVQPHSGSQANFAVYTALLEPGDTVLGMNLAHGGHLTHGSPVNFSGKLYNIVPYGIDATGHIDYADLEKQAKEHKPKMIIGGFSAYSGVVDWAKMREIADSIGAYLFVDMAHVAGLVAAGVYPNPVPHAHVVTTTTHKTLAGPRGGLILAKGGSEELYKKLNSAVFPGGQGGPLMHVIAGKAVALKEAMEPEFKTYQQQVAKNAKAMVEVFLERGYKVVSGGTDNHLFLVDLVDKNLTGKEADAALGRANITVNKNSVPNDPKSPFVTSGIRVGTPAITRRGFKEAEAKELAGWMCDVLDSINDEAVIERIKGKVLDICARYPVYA
Description: spectrophotometric coupled SHMT assay. The following applies: read-out: apparent inhibition constant.

T1 sequence (P40191 whole entry): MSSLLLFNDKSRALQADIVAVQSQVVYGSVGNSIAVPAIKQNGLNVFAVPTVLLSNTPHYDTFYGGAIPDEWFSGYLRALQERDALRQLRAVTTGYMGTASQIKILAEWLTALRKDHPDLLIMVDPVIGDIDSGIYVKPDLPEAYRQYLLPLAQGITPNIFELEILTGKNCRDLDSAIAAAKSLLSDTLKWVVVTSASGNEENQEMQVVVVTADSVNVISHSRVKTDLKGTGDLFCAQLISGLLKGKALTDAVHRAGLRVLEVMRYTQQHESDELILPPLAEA

For the compound `Cc1ncc(CO)c(C)c1O` [4dPN], the Ki at PdxK came to 0.5 ± 0.6 µM.

As for `Cc1ncc(COP(=O)(O)O)c(C)c1O` [4dPNP], the Ki on PdxH turned out to be 530 ± 30 µM; on GlyA it was 50 ± 30 µM.
